Test results from patent US20080033017A1, “COMPOSITIONS FOR ENHANCED ACARICIDAL ACTIVITY” (priority 2000, published 2008).
Values joined by “and” are separate entries in the source; they are usually repeats but may differ in a detail not shown here. Identical values can stand only once.

Tests used:
D. VARIABILIS = test: Comparative tick control on dogs, D. variabilis, percent control; format: in vivo, Dermacentor variabilis; parameters: concentration or dose not given beside the values
Excerpt: (§1) The purpose of this study was to was to determine comparative flea and tick control over a 30 day interval of a combination application of a pyrethroid and a chloronicotinyl insecticide applied dermally to dogs. This combination was compared with permethrin alone, imidacloprid alone, fipronil and selamectin. The latter two compounds are present in products that currently carry claims for both tick and flea control
(§2) Thirty-six dogs were divided into six groups of 6 dogs per group. Each dog received a single topically-applied treatment of the either “Kiltix”, a product available from Bayer Corporation containing 45% w/w permethrin, Advantage®, a product available from Bayer Corporation containing 9.1% w/w imidacloprid, a combination of Kiltix and Advantage containing 45% w/w permethrin+9.1% w/w imidacloprid, Top Spot), a product available from Merial containing 9.7% fipronil or Revolution®, a product available from Pfizer Inc. containing 12% w/v selamectin in accordance with the appropriate dose and label instructions for the various product applications. Control dogs remained untreated. All products were provided in the commercial unit dose applicator tubes.
(§3) The dogs were bathed with a mild non-medicated shampoo and thoroughly combed to remove any existing fleas or ticks 7 to 14 days prior to treatment. The dogs were infested with 100 unfed adult ticks (50 Dermacentor variabilis and 50 Rhipiciphalus sanguineus) and 100 unfed adult fleas on Day −3. Live fleas and ticks were counted on Day −1. The dogs were ranked according to total pretreatment live tick counts from highest to lowest. The 36 dogs with the highest counts were selected for the study. Each consecutive group of 6 dogs comprised one block. Treatment was randomly assigned within each block of dogs.
(§4) Each dog was examined visually for fleas and ticks on Days 1, 7, 14, 21, and 28 following treatment. The hair was parted with the thumbs and fingers to count fleas and ticks. Live tick counts were recorded by species. Live ticks only were counted visually on Days 2, 8, 15, 22, and 29. The dogs were combed on Days 3, 9, 16, 23, and 30. All remaining live fleas and ticks were counted and removed.

R. SANGUINEUS = test: Comparative tick control on dogs, R. sanguineus, percent control; format: in vivo, Rhipicephalus sanguineus; parameters: Percent control R. sanguineus: concentration or dose not given beside the values
Excerpt: as §1, §2, §3, §4

FLEAS (Siphoneptera) = test: Comparative flea control on dogs, percent control; format: in vivo; parameters: Percent control fleas: concentration or dose not given beside the values
Excerpt: as §1, §2, §3, §4

[1] = tested on: both species of ticks (D. variabilis and R. sanguineus); test: Tick control on dogs, both species together; format: in vivo, Dermacentor variabilis and Rhipicephalus sanguineus
Excerpt: as §1
Thirty-six dogs were divided into six groups of 6 dogs per group. […]
The dogs were bathed with a mild non-medicated shampoo and thoroughly combed to remove any existing fleas or ticks 7 to 14 days prior to treatment. […] Live fleas and ticks were counted on Day −1. […]
Each dog was examined visually for fleas and ticks on Days 1, 7, 14, 21, and 28 following treatment. […] Live tick counts were recorded by species. Live ticks only were counted visually on Days 2, 8, 15, 22, and 29. […] All remaining live fleas and ticks were counted and removed.

[2] = Study Day 1, single topical treatment
[3] = Study Day 2, single topical treatment
[4] = Study Day 3, single topical treatment
[5] = Study Day 7, single topical treatment
[6] = Study Day 8, single topical treatment
[7] = Study Day 9, single topical treatment
[8] = Study Day 14, single topical treatment
[9] = Study Day 15, single topical treatment
[10] = Study Day 16, single topical treatment
[11] = Study Day 21, single topical treatment
[12] = Study Day 22, single topical treatment
[13] = Study Day 23, single topical treatment
[14] = Study Day 28, single topical treatment
[15] = Day 1, single topical treatment
[16] = Day 3, single topical treatment
[17] = Day 7, single topical treatment
[18] = Day 9, single topical treatment
[19] = Day 14, single topical treatment
[20] = Day 16, single topical treatment
[21] = Day 21, single topical treatment
[22] = Day 23, single topical treatment
[23] = Day 28, single topical treatment
[24] = Day 30, single topical treatment

SMILES | Percent control D. variabilis (D. VARIABILIS; [2]) | Percent control D. variabilis (D. VARIABILIS; [3]) | Percent control D. variabilis (D. VARIABILIS; [4]) | Percent control D. variabilis (D. VARIABILIS; [5]) | Percent control D. variabilis (D. VARIABILIS; [6]) | Percent control D. variabilis (D. VARIABILIS; [7]) | Percent control D. variabilis (D. VARIABILIS; [8]) | Percent control D. variabilis (D. VARIABILIS; [9]) | Percent control D. variabilis (D. VARIABILIS; [10]) | Percent control D. variabilis (D. VARIABILIS; [11]) | Percent control D. variabilis (D. VARIABILIS; [12]) | Percent control D. variabilis (D. VARIABILIS; [13]) | Percent control D. variabilis (D. VARIABILIS; [14]) | Percent control R. sanguineus (R. SANGUINEUS; [2]) | Percent control R. sanguineus (R. SANGUINEUS; [3]) | Percent control R. sanguineus (R. SANGUINEUS; [4]) | Percent control R. sanguineus (R. SANGUINEUS; [5]) | Percent control R. sanguineus (R. SANGUINEUS; [6]) | Percent control R. sanguineus (R. SANGUINEUS; [7]) | Percent control R. sanguineus (R. SANGUINEUS; [8]) | other results
CC1(C)C(C=C(Cl)Cl)C1C(=O)OCc1cccc(Oc2ccccc2)c1 (stereo not drawn) [Permethrin] | 36.2% | 53.9% | 75.3% | 95.2% | 96.1% | 97.1% | 91.5% | 92.9% | 96.8% | 90.8% | 85.1% | 89.3% | 79.3% | 72.7% | 75.0% | 85.0% | 99.4% | 100% | 99.0% | 95.2% | Percent control R. sanguineus (R. SANGUINEUS; [9]): 98.9%; Percent control R. sanguineus (R. SANGUINEUS; [10]): 99.4%; Percent control R. sanguineus (R. SANGUINEUS; [11]): 89.4%; Percent control R. sanguineus (R. SANGUINEUS; [12]): 91.7%; Percent control R. sanguineus (R. SANGUINEUS; [13]): 91.5%; Percent control R. sanguineus (R. SANGUINEUS; [14]): 68.6%; Percent control fleas (FLEAS (Siphoneptera); [15]): 89.8%; Percent control fleas (FLEAS (Siphoneptera); [16]): 93.9%; Percent control fleas (FLEAS (Siphoneptera); [17]): 79.4%; Percent control fleas (FLEAS (Siphoneptera); [18]): 87.8%; Percent control fleas (FLEAS (Siphoneptera); [19]): 71.9%; Percent control fleas (FLEAS (Siphoneptera); [20]): 65.1%; Percent control fleas (FLEAS (Siphoneptera); [21]): 52.9%; Percent control fleas (FLEAS (Siphoneptera); [22]): 41.9%; Percent control fleas (FLEAS (Siphoneptera); [23]): 43.9%; Percent control fleas (FLEAS (Siphoneptera); [24]): 7.7%; Percent control fleas (FLEAS (Siphoneptera); Day −1 (pretreatment count)): 1.5%; killing of fleas (in words) (FLEAS (Siphoneptera); from day 1 through day 21): some killing effect on fleas; time required to approach a 100% killing of ticks ([1]; single topical treatment): 7 days
N#Cc1nn(-c2c(Cl)cc(C(F)(F)F)cc2Cl)c(N)c1[S+]([O-])C(F)(F)F (stereo not drawn) [Fipronil, fipronil] | *92.9% | *100% | 100% | 100% | 100% | 100% | 98.7% | 100% | 100% | 92.7% | 98.7% | 100% | 69.7% | 96.3% | 100% | 100% | 100% | 100% | 100% | 99.4% | Percent control R. sanguineus (R. SANGUINEUS; [9]): 100%; Percent control R. sanguineus (R. SANGUINEUS; [10]): 99.4%; Percent control R. sanguineus (R. SANGUINEUS; [11]): 86.0%; Percent control R. sanguineus (R. SANGUINEUS; [12]): 100%; Percent control R. sanguineus (R. SANGUINEUS; [13]): 100%; Percent control R. sanguineus (R. SANGUINEUS; [14]): 65.3%; flea kill compared with imidacloprid or the combination (in words) (FLEAS (Siphoneptera)): rate of flea kill equal to that of imidacloprid or the combination of imidacloprid and permethrin; Percent control fleas (FLEAS (Siphoneptera); [15]): 100%; Percent control fleas (FLEAS (Siphoneptera); [16]): 100%; Percent control fleas (FLEAS (Siphoneptera); [17]): 100%; Percent control fleas (FLEAS (Siphoneptera); [18]): 100%; Percent control fleas (FLEAS (Siphoneptera); [19]): 100%; Percent control fleas (FLEAS (Siphoneptera); [20]): 100%; Percent control fleas (FLEAS (Siphoneptera); [21]): 100%; Percent control fleas (FLEAS (Siphoneptera); [22]): 100%; Percent control fleas (FLEAS (Siphoneptera); [23]): 100%; Percent control fleas (FLEAS (Siphoneptera); [24]): 100%; Percent control fleas (FLEAS (Siphoneptera); Day −1 (pretreatment count)): 22.4%; onset of tick kill (in words) ([1]; both tick species): early kill, similar to that of the combination of permethrin and imidacloprid
O=[N+]([O-])N=C1NCCN1Cc1ccc(Cl)nc1 [Imidacloprid, 1-[(6-chloro-3-pyridinyl)methyl]-N-nitro-2-imidazolidinimine] | −12.0% | 16.9% | 30.9% | 32.5% | 35.3% | 39.4% | 50.3% | 66.4% | 68.4% | 50.2% | 40.1% | 50.2% | 38.8% | 15.5% | 42.4% | 35.9% | 67.2% | 72.0% | 66.6% | 53.5% | Percent control R. sanguineus (R. SANGUINEUS; [9]): 58.2%; Percent control R. sanguineus (R. SANGUINEUS; [10]): 54.0%; Percent control R. sanguineus (R. SANGUINEUS; [11]): 41.5%; Percent control R. sanguineus (R. SANGUINEUS; [12]): 18.9%; Percent control R. sanguineus (R. SANGUINEUS; [13]): −5.3%; Percent control R. sanguineus (R. SANGUINEUS; [14]): 39.1%; Percent control fleas (FLEAS (Siphoneptera); [15]): 100%; Percent control fleas (FLEAS (Siphoneptera); [16]): 100%; Percent control fleas (FLEAS (Siphoneptera); [17]): 100%; Percent control fleas (FLEAS (Siphoneptera); [18]): 100%; Percent control fleas (FLEAS (Siphoneptera); [19]): 100%; Percent control fleas (FLEAS (Siphoneptera); [20]): 100%; Percent control fleas (FLEAS (Siphoneptera); [21]): 100%; Percent control fleas (FLEAS (Siphoneptera); [22]): 99.6%; Percent control fleas (FLEAS (Siphoneptera); [23]): 98.6%; Percent control fleas (FLEAS (Siphoneptera); [24]): 99.4%; Percent control fleas (FLEAS (Siphoneptera); Day −1 (pretreatment count)): 5.4%; killing of fleas (in words) (FLEAS (Siphoneptera); from day 1 through day 30): killed essentially all of the fleas
CO[C@H]1C[C@H](O[C@@H]2/C(C)=C/C[C@@H]3C[C@@H](C[C@]4(CC[C@H](C)[C@@H](C5CCCCC5)O4)O3)OC(=O)[C@@H]3C=C(C)/C(=N/O)[C@H]4OC/C(=C\C=C\[C@@H]2C)[C@]43O)O[C@@H](C)[C@@H]1O [Selamectin, selamectin] | 26.2% | 46.7% | 70.8% | 23.1% | 61.2% | 83% and 83.2% | 16.6% | 32.7% | 46.1% | 2.7% | −0.6% | 24.7% | 0.1% | −13.1% | 48.5% | 87% and 87.4% | 83.9% | 83.6% | 95.6% | 21.5% | Percent control R. sanguineus (R. SANGUINEUS; [9]): 46.0%; Percent control R. sanguineus (R. SANGUINEUS; [10]): 70.9%; Percent control R. sanguineus (R. SANGUINEUS; [11]): −7.0%; Percent control R. sanguineus (R. SANGUINEUS; [12]): −2.2%; Percent control R. sanguineus (R. SANGUINEUS; [13]): 8.2%; Percent control R. sanguineus (R. SANGUINEUS; [14]): −16.0%; tick killing of R. sanguineus (in words) (R. SANGUINEUS; by day 16 post application): negligent; flea kill compared with imidacloprid or the combination (in words) (FLEAS (Siphoneptera)): not as effective as either imidacloprid or the combination of imidacloprid and permethrin; Percent control fleas (FLEAS (Siphoneptera); [15]): 87.3%; Percent control fleas (FLEAS (Siphoneptera); [16]): 100%; Percent control fleas (FLEAS (Siphoneptera); [17]): 100%; Percent control fleas (FLEAS (Siphoneptera); [18]): 100%; Percent control fleas (FLEAS (Siphoneptera); [19]): 99.7%; Percent control fleas (FLEAS (Siphoneptera); [20]): 100%; Percent control fleas (FLEAS (Siphoneptera); [21]): 99.8%; Percent control fleas (FLEAS (Siphoneptera); [22]): 100%; Percent control fleas (FLEAS (Siphoneptera); [23]): 86%; Percent control fleas (FLEAS (Siphoneptera); [24]): 98%; Percent control fleas (FLEAS (Siphoneptera); Day −1 (pretreatment count)): 15.1%; time required to demonstrate a significant killing of fleas (FLEAS (Siphoneptera); single topical treatment): 3 days
